Results as given in ChEMBL document CHEMBL1201862, “PubChem BioAssay data set” (2004).
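How tested: cells in 96-well plates exposed to compound for 48 hours at five concentrations. GI50 = concentration required for 50% inhibition of growth.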 Calls of active or inactive are those of the source. Cut-off read from the data, not from the text of the source: active = GI50 up to about 1.1 µM and inactive = higher.

Legend:
Assay in all cases: growth of human tumour cells (NCI), 48 h
786-0 = system: 786-0
A498 = system: A498
A549 = system: A549
ACHN = system: ACHN
BT-549 = system: BT-549
CAKI-1 = system: CAKI-1
CCRF-CEM = system: CCRF-CEM
COLO 205 = system: COLO 205
DU-145 = system: DU-145
EKVX = system: EKVX
HCC 2998 = system: HCC 2998
HCT-116 = system: HCT-116
HCT-15 = system: HCT-15
HL-60 = system: HL-60
HOP-62 = system: HOP-62
HOP-92 = system: HOP-92
HT-29 = system: HT-29
Hs-578T = system: Hs-578T
IGROV-1 = system: IGROV-1
K562 = system: K562
KM12 = system: KM12
LOX IMVI = system: LOX IMVI
M14 = system: M14
MCF7 = system: MCF7
MDA-MB-231 = system: MDA-MB-231
MDA-MB-435 = system: MDA-MB-435
MDA-N = system: MDA-N
MOLT-4 = system: MOLT-4
Malme-3M = system: Malme-3M
NCI-H226 = system: NCI-H226
NCI-H23 = system: NCI-H23
NCI-H460 = system: NCI-H460
NCI/ADR-RES = system: NCI/ADR-RES
OVCAR-3 = system: OVCAR-3
OVCAR-4 = system: OVCAR-4
OVCAR-5 = system: OVCAR-5
OVCAR-8 = system: OVCAR-8
PC-3 = system: PC-3
RPMI-8226 = system: RPMI-8226
RXF 393 = system: RXF 393
SF-268 = system: SF-268
SF-295 = system: SF-295
SF-539 = system: SF-539
SK-MEL-28 = system: SK-MEL-28
SK-MEL-2 = system: SK-MEL-2
SK-MEL-5 = system: SK-MEL-5
SK-OV-3 = system: SK-OV-3
SN12C = system: SN12C
SNB-19 = system: SNB-19
SNB-75 = system: SNB-75
SR = system: SR
SW-620 = system: SW-620
T47D = system: T47D
TK-10 = system: TK-10
U-251 = system: U-251
UACC-257 = system: UACC-257
UACC-62 = system: UACC-62
UO-31 = system: UO-31
NCI-H522 = system: NCI-H522

**Q.** For `O=C(O)c1ccc(Nc2cnc3ccc(C(F)(F)F)cc3n2)cc1`, which GI50 (786-0) is on record?
**A.** The GI50 was 38.9 µM (inactive).

**Q.** And the GI50 (A498)?
**A.** The GI50 was 23.8 µM (inactive).

**Q.** What about the GI50 (A549) of the same compound?
**A.** Its GI50 is 13.4 µM (inactive).

**Q.** What about the GI50 (ACHN) of the same compound?
**A.** Its GI50 is 18 µM (inactive).

**Q.** And the GI50 (BT-549)?
**A.** Its GI50 is 20.9 µM (inactive).

**Q.** What about the GI50 (CAKI-1) of the same compound?
**A.** The GI50 was 14.4 µM (inactive).

**Q.** What about the GI50 (CCRF-CEM) of the same compound?
**A.** The GI50 was 15.6 µM (inactive).

**Q.** What about the GI50 (COLO 205) of the same compound?
**A.** The GI50 was 17.2 µM (inactive).

**Q.** And the GI50 (DU-145)?
**A.** Its GI50 is 23.9 µM (inactive).

**Q.** And the GI50 (EKVX)?
**A.** The GI50 was 38.2 µM (inactive).

**Q.** And the GI50 (HCC 2998)?
**A.** Its GI50 is 6.61 µM (inactive).

**Q.** What about the GI50 (HCT-116) of the same compound?
**A.** The GI50 was 20.1 µM (inactive).

**Q.** What about the GI50 (HCT-15) of the same compound?
**A.** The GI50 was 18.7 µM.

**Q.** And the GI50 (HL-60)?
**A.** The GI50 was 5.4 µM (inactive).

**Q.** What about the GI50 (HOP-62) of the same compound?
**A.** The GI50 was 16.1 µM (inactive).

**Q.** What about the GI50 (HOP-92) of the same compound?
**A.** Its GI50 is 15.5 µM (inactive).

**Q.** And the GI50 (HT-29)?
**A.** Its GI50 is 17.1 µM (inactive).

**Q.** And the GI50 (Hs-578T)?
**A.** The GI50 was 7.08 µM (inactive).

**Q.** What about the GI50 (IGROV-1) of the same compound?
**A.** The GI50 was 12.4 µM (inactive).

**Q.** What about the GI50 (K562) of the same compound?
**A.** The GI50 was 20.9 µM (inactive).

**Q.** What about the GI50 (KM12) of the same compound?
**A.** Its GI50 is 16.5 µM (inactive).

**Q.** And the GI50 (LOX IMVI)?
**A.** The GI50 was 12.1 µM (inactive).

**Q.** What about the GI50 (M14) of the same compound?
**A.** The GI50 was 38.6 µM (inactive).

**Q.** What about the GI50 (MCF7) of the same compound?
**A.** The GI50 was 33 µM (inactive).

**Q.** And the GI50 (MDA-MB-231)?
**A.** Its GI50 is 19.5 µM (inactive).

**Q.** What about the GI50 (MDA-MB-435) of the same compound?
**A.** Its GI50 is 31.6 µM (inactive).

**Q.** What about the GI50 (MDA-N) of the same compound?
**A.** Its GI50 is 17 µM (inactive).

**Q.** And the GI50 (MOLT-4)?
**A.** The GI50 was 19.9 µM (inactive).

**Q.** And the GI50 (Malme-3M)?
**A.** The GI50 was 32.4 µM (inactive).

**Q.** What about the GI50 (NCI-H226) of the same compound?
**A.** Its GI50 is 14.2 µM (inactive).

**Q.** What about the GI50 (NCI-H23) of the same compound?
**A.** The GI50 was 17 µM (inactive).

**Q.** What about the GI50 (NCI-H460) of the same compound?
**A.** The GI50 was 28.1 µM (inactive).

**Q.** And the GI50 (NCI/ADR-RES)?
**A.** Its GI50 is 32.7 µM (inactive).

**Q.** And the GI50 (OVCAR-3)?
**A.** Its GI50 is 28.2 µM (inactive).

**Q.** What about the GI50 (OVCAR-4) of the same compound?
**A.** Its GI50 is 18.9 µM (inactive).

**Q.** What about the GI50 (OVCAR-5) of the same compound?
**A.** Its GI50 is 32.6 µM (inactive).

**Q.** And the GI50 (OVCAR-8)?
**A.** The GI50 was 17.1 µM (inactive).

**Q.** What about the GI50 (PC-3) of the same compound?
**A.** The GI50 was 17.7 µM (inactive).

**Q.** And the GI50 (RPMI-8226)?
**A.** Its GI50 is 18.1 µM (inactive).

**Q.** And the GI50 (RXF 393)?
**A.** Its GI50 is 12.6 µM (inactive).

**Q.** What about the GI50 (SF-268) of the same compound?
**A.** Its GI50 is 31 µM (inactive).

**Q.** And the GI50 (SF-295)?
**A.** The GI50 was 19.6 µM (inactive).

**Q.** What about the GI50 (SF-539) of the same compound?
**A.** Its GI50 is 23.9 µM (inactive).

**Q.** And the GI50 (SK-MEL-28)?
**A.** Its GI50 is 34 µM (inactive).

**Q.** And the GI50 (SK-MEL-2)?
**A.** The GI50 was 13.2 µM (inactive).

**Q.** What about the GI50 (SK-MEL-5) of the same compound?
**A.** Its GI50 is 16.9 µM (inactive).

**Q.** What about the GI50 (SK-OV-3) of the same compound?
**A.** The GI50 was 33.5 µM (inactive).

**Q.** And the GI50 (SN12C)?
**A.** The GI50 was 25.5 µM (inactive).

**Q.** What about the GI50 (SNB-19) of the same compound?
**A.** The GI50 was 18.8 µM (inactive).

**Q.** And the GI50 (SNB-75)?
**A.** Its GI50 is 11.7 µM (inactive).

**Q.** And the GI50 (SR)?
**A.** Its GI50 is 20.4 µM (inactive).

**Q.** And the GI50 (SW-620)?
**A.** Its GI50 is 20.9 µM (inactive).

**Q.** What about the GI50 (T47D) of the same compound?
**A.** Its GI50 is 6.07 µM (inactive).

**Q.** And the GI50 (TK-10)?
**A.** Its GI50 is 13.6 µM (inactive).

**Q.** What about the GI50 (U-251) of the same compound?
**A.** The GI50 was 24.7 µM (inactive).

**Q.** And the GI50 (UACC-257)?
**A.** Its GI50 is 32.7 µM (inactive).

**Q.** What about the GI50 (UACC-62) of the same compound?
**A.** The GI50 was 14 µM (inactive).

**Q.** What about the GI50 (UO-31) of the same compound?
**A.** Its GI50 is 13.7 µM (inactive).

**Q.** What does the source list for `COc1cc(CSc2ccc(O)cc2)cc(O)c1O`?
**A.** GI50 (786-0): 36.2 µM (inactive); GI50 (A498): > 100 µM (inactive); GI50 (A549): 46.7 µM (inactive); GI50 (ACHN): 28.1 µM (inactive); GI50 (BT-549): 18.3 µM (inactive); GI50 (CAKI-1): 28 µM (inactive); GI50 (CCRF-CEM): 8.36 µM (inactive); GI50 (COLO 205): 23.3 µM (inactive); GI50 (DU-145): 44.5 µM (inactive); GI50 (EKVX): 85.7 µM (inactive); GI50 (HCC 2998): 29.2 µM (inactive); GI50 (HCT-116): 22.1 µM (inactive); GI50 (HCT-15): 18.7 µM; GI50 (HL-60): 19.6 µM (inactive); GI50 (HOP-62): 44.7 µM (inactive); GI50 (HOP-92): 22.7 µM (inactive); GI50 (HT-29): 22.2 µM (inactive); GI50 (Hs-578T): 42.1 µM (inactive); GI50 (IGROV-1): 35.3 µM (inactive); GI50 (K562): 31.6 µM (inactive); GI50 (KM12): 25.9 µM (inactive); GI50 (LOX IMVI): 36.2 µM (inactive); GI50 (M14): 20.5 µM (inactive); GI50 (MCF7): 17.6 µM (inactive); GI50 (MDA-MB-231): 25.4 µM (inactive); GI50 (MDA-MB-435): 17.2 µM (inactive); GI50 (MDA-N): 26.7 µM (inactive); GI50 (MOLT-4): 25.3 µM (inactive); GI50 (Malme-3M): 37.6 µM (inactive); GI50 (NCI-H226): 23.4 µM (inactive); GI50 (NCI-H23): 41.8 µM (inactive); GI50 (NCI-H460): > 10 µM (inactive); GI50 (NCI-H522): 16.1 µM (inactive); GI50 (NCI/ADR-RES): 23.8 µM (inactive); GI50 (OVCAR-3): 26.2 µM (inactive); GI50 (OVCAR-5): 23.4 µM (inactive); GI50 (OVCAR-8): 26.2 µM (inactive); GI50 (PC-3): 49.3 µM (inactive); GI50 (RPMI-8226): 15.7 µM (inactive); GI50 (RXF 393): 50.6 µM (inactive); GI50 (SF-268): 28.8 µM (inactive); GI50 (SF-295): 23.2 µM (inactive); GI50 (SF-539): 29.9 µM (inactive); GI50 (SK-MEL-28): 46.2 µM (inactive); GI50 (SK-MEL-2): 24.5 µM (inactive); GI50 (SK-MEL-5): > 10 µM (inactive); GI50 (SK-OV-3): > 10 µM (inactive); GI50 (SN12C): 25.2 µM (inactive); GI50 (SNB-19): 37 µM (inactive); GI50 (SNB-75): 32.1 µM (inactive); GI50 (SR): 21.7 µM (inactive); GI50 (SW-620): 38.5 µM (inactive); GI50 (T47D): 28.8 µM (inactive); GI50 (TK-10): 53.1 µM (inactive); GI50 (U-251): 28.8 µM (inactive); GI50 (UACC-257): 34 µM (inactive); GI50 (UACC-62): 22.8 µM (inactive); GI50 (UO-31): 27.2 µM (inactive)
